According to patent US20090197900A1, “METHODS OF TREATING HEART FAILURE AND RENAL DYSFUNCTION IN INDIVIDUALS WITH AN ADENOSINE A1 RECEPTOR ANTAGONIST” (priority 2007, published 2009):

System: subjects with acute CHF and renal impairment having BNP levels above 500 pg/mL
Experiment: Separate analysis of the Example 1 trial for subjects with BNP levels exceeding 500 pg/mL (BNP subgroup)
Type: in vivo, human
Settings: 30 mg KW-3902, FIG. 14
Experimental: More than 300 subjects hospitalized due to acute CHF requiring intravenous diuretic therapy to treat fluid overload, and presenting with creatinine clearance values between 20 to 80 mL/min were identified. The subjects were randomized to receive either placebo, or 10 mg, 20 mg or 30 mg intravenous KW-3902 per day. The subjects' BNP levels, NT-Pro-BNP, serum creatinine, weight, and NYHA Class were measured.
On day 1, KW-3902 (or placebo) was co-administered with intravenous furosemide (LASIX™). The specified dose of KW-3902 (or placebo) was infused over a four hour time period. Subjects received therapy for up to three days. Serum creatinine, weight, dyspnea, and worsening heart failure were assessed daily by the investigator on days 1 through 14. Worsening heart failure was investigator determined and required an increase in dose or reinstitution of LASIX, mechanical respiratory or circulatory assist measures, administration of intravenous positive […], or administration of intravenous vasodilators.
To compare the therapeutic effect of KW-3902 on individuals with different levels of BNP and or NT-Pro-BNP, the results of the trial discussed in Example 1 were separately analyzed to distinguish subjects with BNP levels exceeding 500 pg/mL. Approximately 75% of the subjects described in Example 1 fell within the subgroup having BNP levels above 500 pg/mL. […]

CCCn1c(=O)c2[nH]c(C34CC5CC(CC3C5)C4)nc2n(CCC)c1=O [KW-3902, 8-(3-noradamantyl)-1,3-dipropylxanthine]
individuals characterized as modified "Success": greater than 65%
